The values that follow come from US11274097B2, “2-(het)aryl-substituted condensed bicyclic heterocycle derivatives as pest control agents” (BAYER CROPSCIENCE AKTIENGESELLSCHAFT, priority 2014, dated 2022).

Assay type in all cases: in vivo
One assay concerns Nilaparvata lugens. The assay is described as follows: Nilaparvata lugens test (NILALU). Conditions: 4 ppm. The procedure:
Nilaparvata lugens Test (NILALU)
(§1) Solvent: 7 parts by weight of dimethylformamide
(§2) Emulsifier: alkylaryl polyglycol ether
(§3) To produce an appropriate active ingredient formulation, 1 part by weight of active ingredient is dissolved using the stated parts by weight of solvent and made up with water containing an emulsifier concentration of 1000 ppm until the desired concentration is attained. To produce further test concentrations, the preparation is diluted with emulsifier-containing water. In the event that addition of ammonium salts or/and penetrants (rapeseed oil methyl ester) is required, these are each pipetted in a concentration of 1000 ppm after the finished formulation solution has been diluted.
Rice plants (Oryza sativa, var. Balilla) are treated by spraying with the active ingredient formulation in the desired concentration and then populated with L3 larvae of the brown planthopper (Nilaparvata lugens).
After the desired time, the feeding damage in % is determined. 100% means that no feeding damage is found; 0% means that the feeding damage to the treated plant corresponds to that of the untreated control.

The test system of another assay is Myzus persicae. Description: Myzus persicae contact test (MYZUPE c). Conditions: 2.4 g/ha, 14 dat. The procedure: Myzus persicae—Contact Test (MYZUPE c)
as §1
Emulsifier: alkylaryl poly glycol ether
as §3
One-leaved bell pepper plants (Capsicum annuum) heavily infested by the green peach aphid (Myzus persicae) are treated by spraying the underside of the leaf with the active ingredient formulation in the desired concentration.
(§4) After the desired time, the kill in % is determined. 100% means that all the aphids have been killed and 0% means that none of the aphids have been killed.

In a further assay the test system is Spodoptera frugiperda. Description: Spodoptera frugiperda spray test (SPODFR). Conditions: application rate 500 g/ha; maize leaf discs; after 7 days.
For another assay, the system named is Musca domestica. The assay is described as follows: Musca domestica test (MUSCDO). Conditions: application rate 20 ppm; adult houseflies; after 2 days. Here is the method: Musca domestica Test (MUSCDO) Solvent: dimethyl sulphoxide To produce an appropriate active ingredient formulation, 10 mg of active ingredient are mixed with 0.5 ml of dimethyl sulphoxide, and the concentrate is diluted with water to the desired concentration. Vessels containing a sponge treated with sugar solution and the active ingredient formulation of the desired concentration are populated with 10 adult houseflies (Musca domestica). After 2 days, the kill in % is determined. 100% means that all of the flies have been killed; 0% means that none of the flies have been killed.

The next assay relates to Boophilus microplus. The assay is described as follows: Boophilus microplus injection test (BOOPMI Inj). The following applies: application rate 20 μg/animal; injection into engorged adult female cattle ticks; after 7 days. The procedure:
Boophilus microplus—Injection Test (BOOPMI Inj)
Solvent: dimethyl sulphoxide
To produce an appropriate active ingredient formulation, 10 mg of active ingredient are mixed with 0.5 ml of solvent and the concentrate is diluted with solvent to the desired concentration.
1 μl of the active ingredient solution is injected into the abdomen of 5 engorged adult female cattle ticks (Boophilus microplus). The animals are transferred into dishes and kept in a climate-controlled room.
Efficacy is assessed after 7 days by laying of fertile eggs. Eggs which are not visibly fertile are stored in a climate-controlled cabinet until the larvae hatch after about 42 days. An efficacy of 100% means that none of the ticks has laid any fertile eggs; 0% means that all the eggs are fertile.

A further assay has as its system Aphis gossypii. Description: Aphis gossypii translaminar test (APHIGO t). The following applies: 2.4 g/ha, 7 dat. Here is the method:
Aphis gossypii—Translaminar Test (APHIGO t)
as §1, §2, §3
One-leaved cotton plants (Gossypium hirsutum) heavily infested by the cotton aphid (Aphis gossypii) are treated by spraying the top side of the leaf with the active ingredient formulation in the desired concentration.
as §4

Each structure is given as a SMILES string.

As for `CCS(=O)(=O)c1cc(C(F)(F)F)cnc1-c1nc2cc(C(F)(F)F)ncc2n1C` [Example I-21], the “% efficacy” value with Nilaparvata lugens (21 dat) amounted to 90%; in the assay on Nilaparvata lugens (28 dat), 100%; with Myzus persicae it was 85%; with Aphis gossypii, 65%. The same molecule showed an efficacy with Spodoptera frugiperda of 100%. The “efficacy (kill)” value with Musca domestica is recorded as 95%. Also, the “efficacy (laying of fertile eggs)” value with Boophilus microplus was determined as 80%.
